Assay results: ChEMBL document CHEMBL4507273 (2021)

How the values were obtained:
[1] = target: Muscarinic acetylcholine receptor M2 (Homo sapiens, UniProt P08172); experiment: GPCRScan assay: inhibition of M2; parameters: radioligand conc. used [nm] 0.2 – 1.0, parental cells stable CHO
[2] = target: T1, Alpha-1D adrenergic receptor (Homo sapiens, UniProt P25100); experiment: GPCRScan assay: inhibition of Alpha1D; parameters: radioligand conc. used [nm] 0.3 – 1.0, parental cells stable
T1 sequence (P25100 whole entry): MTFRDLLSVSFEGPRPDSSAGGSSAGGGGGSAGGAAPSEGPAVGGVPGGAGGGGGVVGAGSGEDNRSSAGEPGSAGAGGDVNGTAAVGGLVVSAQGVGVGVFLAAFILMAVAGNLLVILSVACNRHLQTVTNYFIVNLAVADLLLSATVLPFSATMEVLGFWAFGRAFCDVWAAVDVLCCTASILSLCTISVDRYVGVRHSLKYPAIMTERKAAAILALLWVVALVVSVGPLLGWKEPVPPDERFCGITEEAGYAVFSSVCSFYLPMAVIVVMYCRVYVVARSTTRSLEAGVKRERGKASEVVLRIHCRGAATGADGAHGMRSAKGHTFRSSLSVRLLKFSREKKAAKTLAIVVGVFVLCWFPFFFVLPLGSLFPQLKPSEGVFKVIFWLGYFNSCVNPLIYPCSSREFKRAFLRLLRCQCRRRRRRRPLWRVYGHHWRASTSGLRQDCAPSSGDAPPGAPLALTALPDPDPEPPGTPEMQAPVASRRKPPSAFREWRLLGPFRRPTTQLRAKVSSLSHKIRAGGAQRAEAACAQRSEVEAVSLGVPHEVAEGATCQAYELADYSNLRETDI

[3] = target: Sigma intracellular receptor 2 (Homo sapiens, UniProt Q5BJF2); experiment: GPCRScan assay: inhibition of Sigma 2; parameters: radioligand conc. used [nm] 5.0, parental cells HEKT
Sequence of Sigma intracellular receptor 2 (Q5BJF2 whole entry): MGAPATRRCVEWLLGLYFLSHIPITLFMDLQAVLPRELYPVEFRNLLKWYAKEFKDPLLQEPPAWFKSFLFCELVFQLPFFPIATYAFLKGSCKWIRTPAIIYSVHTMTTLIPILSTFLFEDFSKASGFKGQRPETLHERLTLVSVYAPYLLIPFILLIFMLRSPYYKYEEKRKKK

[4] = system: ALK tyrosine kinase receptor (Homo sapiens), Q9UM73 [L1196M]; conditions: Compound concentration 1000.0 nM
[5] = target: BMP-2-inducible protein kinase (Homo sapiens) (UniProt Q9NSY1); conditions: Compound concentration 1000.0 nM
[6] = target: Calcium/calmodulin-dependent protein kinase type II subunit gamma (Homo sapiens) (UniProt Q13555); conditions: Compound concentration 1000.0 nM
[7] = target: Cyclin-dependent kinase 7 (Homo sapiens) (UniProt P50613); conditions: Compound concentration 1000.0 nM
Sequence of Cyclin-dependent kinase 7 (Homo sapiens) (P50613 whole entry): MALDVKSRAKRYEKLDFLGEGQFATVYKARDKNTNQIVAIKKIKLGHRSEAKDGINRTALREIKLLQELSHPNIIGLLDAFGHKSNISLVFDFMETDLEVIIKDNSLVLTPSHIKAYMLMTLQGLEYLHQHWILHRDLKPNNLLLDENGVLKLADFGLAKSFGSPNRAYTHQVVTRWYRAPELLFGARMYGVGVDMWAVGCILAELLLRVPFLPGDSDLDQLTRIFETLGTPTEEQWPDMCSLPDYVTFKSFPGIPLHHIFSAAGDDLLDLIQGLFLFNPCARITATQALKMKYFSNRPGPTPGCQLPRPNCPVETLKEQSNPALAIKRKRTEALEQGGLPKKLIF

[8] = target: Dual specificity protein kinase CLK2 (Homo sapiens) (UniProt P49760); conditions: Compound concentration 1000.0 nM
[9] = target: Tyrosine-protein kinase CSK (Homo sapiens) (UniProt P41240); conditions: Compound concentration 1000.0 nM
[10] = target: Serine/threonine-protein kinase 17A (Homo sapiens) (UniProt Q9UEE5); conditions: Compound concentration 1000.0 nM
[11] = system: Epidermal growth factor receptor (Homo sapiens), P00533 [G719C]; conditions: Compound concentration 1000.0 nM
[12] = target: Fibroblast growth factor receptor 1 (Homo sapiens) (UniProt P11362); conditions: Compound concentration 1000.0 nM
[13] = target: G protein-coupled receptor kinase 4 (Homo sapiens) (UniProt P32298); conditions: Compound concentration 1000.0 nM
[14] = target: Tyrosine-protein kinase Lyn (Homo sapiens) (UniProt P07948); conditions: Compound concentration 1000.0 nM
[15] = target: Serine/threonine-protein kinase MAK (Homo sapiens) (UniProt P20794); conditions: Compound concentration 1000.0 nM
Sequence of Serine/threonine-protein kinase MAK (Homo sapiens) (P20794 whole entry): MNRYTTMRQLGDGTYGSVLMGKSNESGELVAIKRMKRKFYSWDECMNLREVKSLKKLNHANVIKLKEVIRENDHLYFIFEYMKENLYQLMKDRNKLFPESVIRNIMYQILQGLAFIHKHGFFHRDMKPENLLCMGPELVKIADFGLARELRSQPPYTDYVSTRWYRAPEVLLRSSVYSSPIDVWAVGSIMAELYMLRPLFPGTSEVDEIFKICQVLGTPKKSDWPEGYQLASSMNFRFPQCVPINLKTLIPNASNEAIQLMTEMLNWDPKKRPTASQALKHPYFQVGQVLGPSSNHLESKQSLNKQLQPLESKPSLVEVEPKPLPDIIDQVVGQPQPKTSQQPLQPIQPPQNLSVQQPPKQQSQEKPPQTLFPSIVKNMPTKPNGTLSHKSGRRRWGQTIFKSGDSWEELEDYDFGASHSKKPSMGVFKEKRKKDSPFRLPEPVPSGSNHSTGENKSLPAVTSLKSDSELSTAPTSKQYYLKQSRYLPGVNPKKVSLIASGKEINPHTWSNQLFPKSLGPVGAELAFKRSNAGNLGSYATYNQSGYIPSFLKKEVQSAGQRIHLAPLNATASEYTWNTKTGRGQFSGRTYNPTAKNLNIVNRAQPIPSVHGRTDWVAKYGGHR

[16] = target: Mitogen-activated protein kinase kinase kinase 9 (Homo sapiens) (UniProt P80192); conditions: Compound concentration 1000.0 nM
Sequence of Mitogen-activated protein kinase kinase kinase 9 (Homo sapiens) (P80192 whole entry, looked up): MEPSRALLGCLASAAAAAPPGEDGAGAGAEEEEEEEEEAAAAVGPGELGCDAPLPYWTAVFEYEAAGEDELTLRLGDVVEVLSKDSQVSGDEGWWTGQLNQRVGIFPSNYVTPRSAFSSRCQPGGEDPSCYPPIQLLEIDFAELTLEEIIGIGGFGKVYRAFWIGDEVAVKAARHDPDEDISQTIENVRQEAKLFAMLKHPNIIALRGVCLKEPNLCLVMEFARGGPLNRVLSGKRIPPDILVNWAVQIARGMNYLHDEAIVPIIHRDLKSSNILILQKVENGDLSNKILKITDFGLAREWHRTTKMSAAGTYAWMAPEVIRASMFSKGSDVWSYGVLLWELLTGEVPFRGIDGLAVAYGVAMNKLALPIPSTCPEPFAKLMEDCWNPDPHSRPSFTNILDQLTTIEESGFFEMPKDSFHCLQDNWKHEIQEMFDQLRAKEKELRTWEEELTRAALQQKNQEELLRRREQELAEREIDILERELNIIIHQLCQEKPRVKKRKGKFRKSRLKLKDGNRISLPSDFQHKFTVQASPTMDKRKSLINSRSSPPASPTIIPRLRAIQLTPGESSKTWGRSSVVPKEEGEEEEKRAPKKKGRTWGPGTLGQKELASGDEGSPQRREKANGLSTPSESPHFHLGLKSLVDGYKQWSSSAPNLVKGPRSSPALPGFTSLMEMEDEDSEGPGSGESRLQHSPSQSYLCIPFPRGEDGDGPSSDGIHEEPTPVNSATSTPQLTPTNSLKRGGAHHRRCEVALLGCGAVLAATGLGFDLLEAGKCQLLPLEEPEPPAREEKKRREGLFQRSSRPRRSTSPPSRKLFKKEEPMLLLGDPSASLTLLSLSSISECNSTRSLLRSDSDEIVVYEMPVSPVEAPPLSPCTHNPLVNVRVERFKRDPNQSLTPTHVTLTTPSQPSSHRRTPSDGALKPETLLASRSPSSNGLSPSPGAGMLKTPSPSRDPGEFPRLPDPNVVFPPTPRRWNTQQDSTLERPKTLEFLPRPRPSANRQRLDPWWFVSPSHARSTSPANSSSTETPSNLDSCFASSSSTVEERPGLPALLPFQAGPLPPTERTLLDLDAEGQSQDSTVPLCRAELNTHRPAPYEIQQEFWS

[17] = target: Serine/threonine-protein kinase NLK (Homo sapiens) (UniProt Q9UBE8); conditions: Compound concentration 1000.0 nM
[18] = target: Phosphatidylinositol 4-phosphate 3-kinase C2 domain-containing subunit beta (Homo sapiens) (UniProt O00750); conditions: Compound concentration 1000.0 nM
[19] = target: Phosphatidylinositol 4,5-bisphosphate 3-kinase catalytic subunit delta isoform (Homo sapiens) (UniProt O00329); conditions: Compound concentration 1000.0 nM
[20] = target: 1-phosphatidylinositol 3-phosphate 5-kinase (Homo sapiens) (UniProt Q9Y2I7); conditions: Compound concentration 1000.0 nM
[21] = target: Serine/threonine-protein kinase PLK1 (Homo sapiens) (UniProt P53350); conditions: Compound concentration 1000.0 nM
[22] = target: Ribosomal protein S6 kinase alpha-5 (Homo sapiens) (UniProt O75582); conditions: Compound concentration 1000.0 nM
Sequence of Ribosomal protein S6 kinase alpha-5 (Homo sapiens) (O75582 whole entry, looked up): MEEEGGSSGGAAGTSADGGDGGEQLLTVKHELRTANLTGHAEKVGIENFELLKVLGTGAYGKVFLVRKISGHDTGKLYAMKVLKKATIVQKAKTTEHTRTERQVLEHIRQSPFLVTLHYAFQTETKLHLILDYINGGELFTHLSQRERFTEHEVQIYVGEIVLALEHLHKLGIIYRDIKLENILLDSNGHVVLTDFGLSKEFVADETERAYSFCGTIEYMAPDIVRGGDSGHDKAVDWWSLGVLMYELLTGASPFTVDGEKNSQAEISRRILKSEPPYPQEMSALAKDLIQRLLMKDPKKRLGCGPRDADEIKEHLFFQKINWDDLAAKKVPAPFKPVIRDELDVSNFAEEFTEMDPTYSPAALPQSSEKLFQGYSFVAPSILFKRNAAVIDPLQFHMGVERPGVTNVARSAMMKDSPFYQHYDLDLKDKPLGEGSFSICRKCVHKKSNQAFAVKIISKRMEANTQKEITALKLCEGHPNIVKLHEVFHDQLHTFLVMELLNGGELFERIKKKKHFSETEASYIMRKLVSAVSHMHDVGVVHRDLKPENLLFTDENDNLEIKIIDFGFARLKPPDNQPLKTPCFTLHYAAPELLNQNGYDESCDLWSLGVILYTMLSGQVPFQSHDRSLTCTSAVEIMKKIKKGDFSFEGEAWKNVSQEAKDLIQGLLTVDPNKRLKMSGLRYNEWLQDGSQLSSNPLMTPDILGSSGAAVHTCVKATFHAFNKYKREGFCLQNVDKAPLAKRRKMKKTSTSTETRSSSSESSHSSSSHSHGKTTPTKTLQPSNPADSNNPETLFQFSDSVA

[23] = target: Tyrosine-protein kinase Srms (Homo sapiens) (UniProt Q9H3Y6); conditions: Compound concentration 1000.0 nM
[24] = target: Serine/threonine-protein kinase tousled-like 1 (Homo sapiens) (UniProt Q9UKI8); conditions: Compound concentration 1000.0 nM
Sequence of Serine/threonine-protein kinase tousled-like 1 (Homo sapiens) (Q9UKI8 whole entry): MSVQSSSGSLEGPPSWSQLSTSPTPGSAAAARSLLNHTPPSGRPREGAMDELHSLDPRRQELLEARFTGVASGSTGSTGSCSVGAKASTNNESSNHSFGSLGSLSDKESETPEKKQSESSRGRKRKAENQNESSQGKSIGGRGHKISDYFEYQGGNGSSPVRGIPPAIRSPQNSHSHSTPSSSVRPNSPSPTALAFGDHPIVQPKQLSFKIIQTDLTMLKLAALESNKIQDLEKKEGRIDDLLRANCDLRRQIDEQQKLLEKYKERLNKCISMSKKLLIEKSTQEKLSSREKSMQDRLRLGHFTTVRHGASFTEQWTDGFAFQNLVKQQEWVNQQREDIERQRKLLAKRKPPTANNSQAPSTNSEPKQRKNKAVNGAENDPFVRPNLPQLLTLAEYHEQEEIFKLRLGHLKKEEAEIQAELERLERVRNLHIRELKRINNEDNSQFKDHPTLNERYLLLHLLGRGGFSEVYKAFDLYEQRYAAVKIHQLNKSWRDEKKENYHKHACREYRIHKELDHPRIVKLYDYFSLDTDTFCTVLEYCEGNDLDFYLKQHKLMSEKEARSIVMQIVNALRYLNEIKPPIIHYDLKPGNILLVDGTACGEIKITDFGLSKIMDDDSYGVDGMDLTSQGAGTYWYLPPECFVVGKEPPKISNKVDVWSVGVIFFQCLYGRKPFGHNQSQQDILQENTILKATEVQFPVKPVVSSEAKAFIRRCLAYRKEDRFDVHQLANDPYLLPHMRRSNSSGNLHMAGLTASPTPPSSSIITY

[25] = target: Non-receptor tyrosine-protein kinase TNK1 (Homo sapiens) (UniProt Q13470); conditions: Compound concentration 1000.0 nM
Sequence of Non-receptor tyrosine-protein kinase TNK1 (Homo sapiens) (Q13470 whole entry): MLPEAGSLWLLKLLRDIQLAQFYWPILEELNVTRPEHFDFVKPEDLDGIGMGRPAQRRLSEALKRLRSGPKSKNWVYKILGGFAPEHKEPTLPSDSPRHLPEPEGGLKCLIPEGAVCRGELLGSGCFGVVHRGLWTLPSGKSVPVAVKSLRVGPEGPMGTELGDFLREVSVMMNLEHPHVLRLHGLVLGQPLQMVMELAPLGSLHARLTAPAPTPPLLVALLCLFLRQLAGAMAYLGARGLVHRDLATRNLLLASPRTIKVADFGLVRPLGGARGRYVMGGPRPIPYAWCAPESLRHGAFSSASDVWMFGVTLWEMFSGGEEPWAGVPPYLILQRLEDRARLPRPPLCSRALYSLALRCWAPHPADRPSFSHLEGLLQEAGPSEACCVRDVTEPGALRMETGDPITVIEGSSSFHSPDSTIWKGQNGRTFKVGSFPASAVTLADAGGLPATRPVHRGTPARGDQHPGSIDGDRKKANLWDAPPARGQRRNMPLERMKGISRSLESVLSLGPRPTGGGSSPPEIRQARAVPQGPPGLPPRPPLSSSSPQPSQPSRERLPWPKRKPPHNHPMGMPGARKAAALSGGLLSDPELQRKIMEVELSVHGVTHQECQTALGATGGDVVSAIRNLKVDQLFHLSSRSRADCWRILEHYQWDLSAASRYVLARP

[26] = target: Serine/threonine-protein kinase WNK4 (Homo sapiens) (UniProt Q96J92); conditions: Compound concentration 1000.0 nM
[27] = target: T2, 5-hydroxytryptamine receptor 1A (Homo sapiens) (UniProt P08908); conditions: Compound concentration 10.0 uM
T2 sequence (whole entry): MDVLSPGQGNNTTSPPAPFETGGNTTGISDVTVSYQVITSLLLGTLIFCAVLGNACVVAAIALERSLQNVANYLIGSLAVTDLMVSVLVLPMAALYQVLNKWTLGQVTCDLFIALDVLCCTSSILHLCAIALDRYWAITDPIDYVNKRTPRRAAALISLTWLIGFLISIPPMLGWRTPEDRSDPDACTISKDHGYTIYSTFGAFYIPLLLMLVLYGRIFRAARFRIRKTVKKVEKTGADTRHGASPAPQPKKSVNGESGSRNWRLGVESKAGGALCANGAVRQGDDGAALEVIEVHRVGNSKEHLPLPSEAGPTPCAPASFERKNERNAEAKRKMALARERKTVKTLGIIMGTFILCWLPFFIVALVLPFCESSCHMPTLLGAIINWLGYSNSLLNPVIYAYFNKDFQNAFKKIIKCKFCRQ

[28] = target: 5-hydroxytryptamine receptor 2A (Homo sapiens, UniProt P28223); conditions: Compound concentration 10.0 uM
Sequence of 5-hydroxytryptamine receptor 2A (P28223 whole entry): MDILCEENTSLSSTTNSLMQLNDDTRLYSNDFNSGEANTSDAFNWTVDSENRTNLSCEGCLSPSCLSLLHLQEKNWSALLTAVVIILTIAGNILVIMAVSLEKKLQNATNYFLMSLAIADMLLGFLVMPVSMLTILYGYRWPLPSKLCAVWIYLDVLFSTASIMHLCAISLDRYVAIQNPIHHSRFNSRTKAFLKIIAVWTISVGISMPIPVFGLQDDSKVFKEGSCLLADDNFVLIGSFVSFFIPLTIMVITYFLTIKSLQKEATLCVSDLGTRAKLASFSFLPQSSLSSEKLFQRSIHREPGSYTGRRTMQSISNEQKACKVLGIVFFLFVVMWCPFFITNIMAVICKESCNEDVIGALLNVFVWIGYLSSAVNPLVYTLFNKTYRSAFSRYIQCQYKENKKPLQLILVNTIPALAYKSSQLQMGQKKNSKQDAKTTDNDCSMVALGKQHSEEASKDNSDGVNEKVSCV

[29] = target: Muscarinic acetylcholine receptor M5 (Homo sapiens) (UniProt P08912); conditions: Compound concentration 10.0 uM

SMILES | Ki [1] [nM] | Ki ([2]; read-out: Ki) [nM] | Ki ([3]; read-out: Ki) [nM] | residual activity [4] [%] | residual activity [5] [%] | residual activity [6] [%] | residual activity [7] [%] | residual activity [8] [%] | residual activity [9] [%] | residual activity [10] [%] | residual activity [11] [%] | residual activity [12] [%] | residual activity [13] [%] | residual activity [14] [%] | residual activity [15] [%] | residual activity [16] [%] | residual activity [17] [%] | residual activity [18] [%] | residual activity [19] [%] | residual activity [20] [%] | other results
CNCc1ccccc1-c1csc([C@H](C)Nc2nc(C)nc3cc(OC)c(OC)cc23)c1 [BAY-294] | 1470 | 397 | 638 | 93 | 79 | 90 | 61 | 100 | 100 | 100 | 85 | 100 | 97 | 100 | 97 | 100 | 100 | 100 | 100 | 100 | Ki ([2]; read-out: pKi (converted)): 389 nM; Ki ([3]; read-out: pKi (converted)): 610 nM; residual activity [21]: 85%; residual activity [22]: 100%; residual activity [23]: 88%; residual activity [24]: 100%; residual activity [25]: 85%; residual activity [26]: 90%; inhibition [27]: 93.8%; inhibition [28]: 99.2%; inhibition [29]: 54.1%
CNCc1ccccc1-c1csc([C@@H](C)Nc2nc(C)nc3cc(OC)c(OC)cc23)c1 [BAY-293] | 512 | 338 | 180 | 100 | 87 | 100 | 63 | 98 | 100 | 100 | 63 | 100 | 80 | 100 | 100 | 98 | 84 | 86 | 75 | 100 | residual activity [21]: 80%; residual activity [22]: 100%; residual activity [23]: 92%; residual activity [24]: 100%; residual activity [25]: 64%; residual activity [26]: 100%; inhibition [27]: 56.5%; inhibition [28]: 98.5%; inhibition [29]: 64.8%
